Target: Xanthine dehydrogenase/oxidase (Homo sapiens, UniProt P47989)
Assay: Inhibition of xanthine oxidase (unknown origin) using xanthine as substrate preincubated for 5 mins followed by substrate addition measured for 20 mins by spectrophotometric method

Sequence of Xanthine dehydrogenase/oxidase (P47989 whole entry): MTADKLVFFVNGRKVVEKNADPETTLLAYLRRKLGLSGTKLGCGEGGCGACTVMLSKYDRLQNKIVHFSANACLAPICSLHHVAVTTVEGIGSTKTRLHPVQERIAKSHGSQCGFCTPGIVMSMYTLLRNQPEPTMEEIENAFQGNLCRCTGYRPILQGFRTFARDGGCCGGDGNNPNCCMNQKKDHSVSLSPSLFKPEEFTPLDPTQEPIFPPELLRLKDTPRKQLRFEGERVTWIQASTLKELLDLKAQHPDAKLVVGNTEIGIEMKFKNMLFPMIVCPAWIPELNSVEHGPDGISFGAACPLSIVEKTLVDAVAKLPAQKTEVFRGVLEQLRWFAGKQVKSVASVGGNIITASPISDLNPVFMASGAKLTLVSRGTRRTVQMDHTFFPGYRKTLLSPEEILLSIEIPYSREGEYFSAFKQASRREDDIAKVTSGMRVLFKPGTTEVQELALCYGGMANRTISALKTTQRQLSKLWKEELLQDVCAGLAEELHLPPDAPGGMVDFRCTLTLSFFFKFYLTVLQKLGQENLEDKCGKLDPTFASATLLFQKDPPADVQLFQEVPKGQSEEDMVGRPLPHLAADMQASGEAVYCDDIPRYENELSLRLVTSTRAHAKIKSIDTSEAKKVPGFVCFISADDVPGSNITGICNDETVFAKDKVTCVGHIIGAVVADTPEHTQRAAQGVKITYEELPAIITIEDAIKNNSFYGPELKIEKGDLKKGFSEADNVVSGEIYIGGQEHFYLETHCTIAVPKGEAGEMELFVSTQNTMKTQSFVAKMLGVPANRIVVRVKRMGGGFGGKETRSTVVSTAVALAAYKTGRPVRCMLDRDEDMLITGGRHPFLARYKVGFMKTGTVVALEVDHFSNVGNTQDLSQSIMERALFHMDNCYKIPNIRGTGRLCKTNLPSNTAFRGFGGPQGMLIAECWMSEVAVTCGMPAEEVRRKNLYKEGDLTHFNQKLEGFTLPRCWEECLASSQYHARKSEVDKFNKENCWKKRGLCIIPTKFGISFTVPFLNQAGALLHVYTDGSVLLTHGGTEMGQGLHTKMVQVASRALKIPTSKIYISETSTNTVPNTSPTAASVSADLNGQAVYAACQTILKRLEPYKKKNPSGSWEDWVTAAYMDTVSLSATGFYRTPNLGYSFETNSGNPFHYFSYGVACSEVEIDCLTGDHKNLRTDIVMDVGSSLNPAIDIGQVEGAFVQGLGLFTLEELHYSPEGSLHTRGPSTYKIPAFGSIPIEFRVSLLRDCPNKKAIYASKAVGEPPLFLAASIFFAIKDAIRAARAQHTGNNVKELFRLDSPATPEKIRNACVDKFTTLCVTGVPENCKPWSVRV

IC50: 13 nM
Compound: Cc1nc(-c2ccc(OCC(C)C)c(C#N)c2)sc1C(=O)O [FEBUXOSTAT]
